# Experimental data reported in patent US8697641B2, “4-amino-4-oxobutanoyl peptide cyclic analogues, inhibitors of viral replication” (Achillion Pharmaceuticals, Inc., priority 2008, dated 2014).
# Test system: Hepatitis C replicon
# Experiment: HCV replicon assay (NPT ELISA readout) in Huh-7 replicon-containing cells
# Format: cell-based, Hepatitis C virus
# Conditions: Hepatitis C virus, 72 h; HCV replicon in Huh-7 cells, three days incubation
# Summary of the method: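 Replication is measured as neomycin phosphotransferase level by captured ELISA after three days of compound exposure (typically 10 to 0.03 μM, 6 concentrations) at 37 °C. Cells are Huh-7 harbouring an HCV replicon with neo gene and NS3-NS5B; interferon alpha is the positive control.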
row,Compound,EC50
1,"O=C1N[C@]2(C(=O)NS(=O)(=O)C3CC3)C[C@H]2/C=C\CCCCC[C@H](CC(=O)N2CCCCC2)C(=O)N2C[C@H](OC(=O)N3CCc4ccccc4C3)C[C@@H]12 [Compound 112, (2R,6R,14aR, 16aS,Z)-14a-(cyclopropylsulfonyl-carbamoyl)-5,16-dioxo-6-(2-oxo-2-(piperidin-1-yl)ethyl)-1,2,3,5,6,7,8,9,10,11, 13a,14,14a,15,16,16a-hexadecahydrocyclopropa [e]pyrrolo[1,2-a][1,4] diazacyclopentadecin-2-yl 3,4-dihydroisoquinoline-2(1H)-carboxylate]",< 1 µM
2,"O=C1N[C@]2(C(=O)NS(=O)(=O)C3CC3)C[C@H]2/C=C\CCCCC[C@H](CC(=O)N2CCCC(F)(F)C2)C(=O)N2C[C@H](OC(=O)N3CCc4ccccc4C3)C[C@@H]12 [Compound 113, (2R,6R,14aR, 16aS,Z)-14a-(cyclopropylsulfonyl-carbamoyl)-6-(2-(3,3-difluoropiperidin-1-yl)-2-oxoethyl)-5,16-dioxo-1,2,3,5,6,7,8,9,10,11, 13a,14,14a,15,16,16a-hexadecahydrocyclopropa [e]pyrrolo[1,2-a][1,4] diazacyclopentadecin-2-yl 3,4-dihydroisoquinoline-2(1H)-carboxylate]",< 1 µM
3,"O=C1N[C@]2(C(=O)NS(=O)(=O)C3CC3)C[C@H]2/C=C\CCCCC[C@H](CC(=O)N2CCC(F)(F)C2)C(=O)N2C[C@H](OC(=O)N3CCc4ccccc4C3)C[C@@H]12 [Compound 114, (2R,6R,14aR, 16aS,Z)-14a-(cyclopropylsulfonyl-carbamoyl)-6-(2-(3,3-difluoropyrrolidin-1-yl)-2-oxoethyl)-5,16-dioxo-1,2,3,5,6,7,8,9,10,11, 13a,14,14a,15,16,16a-hexadecahydrocyclopropa [e]pyrrolo[1,2-a][1,4] diazacyclopentadecin-2-yl 3,4-dihydroisoquinoline-2(1H)-carboxylate]",< 1 µM
4,"O=C1N[C@]2(C(=O)NS(=O)(=O)C3CC3)CC2/C=C\CCCCC[C@H](CC(=O)N2CCC(C(F)(F)F)CC2)C(=O)N2C[C@H](OC(=O)N3CCc4ccccc4C3)C[C@@H]12 (stereo partly drawn) [Compound 115, (2R,6R,14aR, 16aS,Z)-14a-(cyclopropylsulfonyl-carbamoyl)-5,16-dioxo-6-(2-oxo-2-(4-(trifluoromethyl)piperidin-1-yl)ethyl)-1,2,3,5,6,7,8,9,10,11, 13a,14,14a,15,16,16a-hexadecahydrocyclopropa [e]pyrrolo[1,2-a][1,4] diazacyclopentadecin-2-yl 3,4-dihydroisoquinoline-2(1H)-carboxylate]",< 1 µM
5,"COc1ccc2c(O[C@@H]3C[C@H]4C(=O)N[C@]5(C(=O)NS(=O)(=O)C6CC6)C[C@H]5/C=C\CCCCC[C@H](CC(=O)N5CCCCC5)C(=O)N4C3)cc(-c3ccccn3)nc2c1C [Compound 116, (2R,6R,14aR,16aS,Z)-N-(cyclopropylsulfonyl)-2-(7-methoxy-8-methyl-2-(pyridin-2-yl)quinolin-4-yloxy)-5, 16-dioxo-6-(2-oxo-2-(piperidin-1-yl)ethyl)-1,2,3,5,6,7,8,9,10,11, 13a,14,14a,15,16,16a-hexadecahydrocyclopropa [e]pyrrolo[1,2-a][1,4] diazacyclopentadecine-14a-carboxamide]",< 1 µM
6,"COc1ccc2c(O[C@@H]3C[C@H]4C(=O)N[C@]5(C(=O)NS(=O)(=O)C6CC6)C[C@H]5/C=C\CCCCC[C@H](CC(=O)N5CCC(C(F)(F)F)CC5)C(=O)N4C3)cc(-c3ccccn3)nc2c1C [Compound 117, (2R,6R,14aR,16aS,Z)-N-(cyclopropylsulfonyl)-2-(7-methoxy-8-methyl-2-(pyridin-2-yl)quinolin-4-yloxy)-5, 16-dioxo-6-(2-oxo-2-(4-(trifluoromethyl)piperidin-1-yl)ethyl)-1,2,3,5,6,7,8,9,10,11, 13a,14,14a,15,16,16a-hexadecahydrocyclopropa [e]pyrrolo[1,2-a][1,4] diazacyclopentadecine-14a-carboxamide]",> 10 µM
7,"COc1ccc2c(O[C@@H]3C[C@H]4C(=O)N[C@]5(C(=O)NS(=O)(=O)C6CC6)C[C@H]5/C=C\CCCCC[C@H](CC(=O)N5CCCCC5)C(=O)N4C3)cc(-c3nc(C(C)C)cs3)nc2c1 [Compound 118, (2R,6R,14aR,16aS,Z)-N-(cyclopropylsulfonyl)-2-(2-(4-isopropylthiazol-2-yl)-7-methoxyquinolin-4-yloxy)-5,16-dioxo-6-(2-oxo-2-(piperidin-1-yl)ethyl)-1,2,3,5,6,7,8,9,10,11, 13a,14,14a,15,16,16a-hexadecahydrocyclopropa [e]pyrrolo[1,2-a][1,4] diazacyclopentadecine-14a-carboxamide]",< 1 µM
8,"COc1ccc2c(O[C@@H]3C[C@H]4C(=O)N[C@]5(C(=O)NS(=O)(=O)C6CC6)C[C@H]5/C=C\CCCCC[C@H](CC(=O)N5CCC(C(F)(F)F)CC5)C(=O)N4C3)cc(-c3nc(C(C)C)cs3)nc2c1 [Compound 119, (2R,6R,14aR,16aS,Z)-N-(cyclopropylsulfonyl)-2-(2-(4-isopropylthiazol-2-yl)-7-methoxyquinolin-4-yloxy)-5,16-dioxo-6-(2-oxo-2-(4-(trifluoromethyl)piperidin-1-yl)ethyl)-1,2,3,5,6,7,8,9,10,11, 13a,14,14a,15,16,16a-hexadecahydrocyclopropa [e]pyrrolo[1,2-a][1,4] diazacyclopentadecine-14a-carboxamide]",< 1 µM
9,"COc1ccc2c(O[C@@H]3C[C@H]4C(=O)N[C@]5(C(=O)NS(=O)(=O)C6CC6)C[C@H]5/C=C\CCCCC[C@H](CC(=O)N5CCCCC5)C(=O)N4C3)cc(-c3ccccc3)cc2c1 [Compound 120, (2R,6R,14aR,16aS,Z)-N-(cyclopropylsulfonyl)-2-(6-methoxy-3-phenylnaphthalen-1-yloxy)-5,16-dioxo-6-(2-oxo-2-(piperidin-1-yl)ethyl)-1,2,3,5,6,7,8,9,10,11, 13a,14,14a,15,16,16a-hexadecahydrocyclopropa [e]pyrrolo[1,2-a][1,4] diazacyclopentadecine-14a-carboxamide]",< 1 µM
10,"COc1ccc2c(O[C@@H]3C[C@H]4C(=O)N[C@]5(C(=O)NS(=O)(=O)C6CC6)C[C@H]5/C=C\CCCCC[C@H](CC(=O)N5CCC(C(F)(F)F)CC5)C(=O)N4C3)cc(-c3csc(NC(C)C)n3)nc2c1C [Compound 121, (2R,6R,13aS,16aS,Z)-N-(cyclopropylsulfonyl)-2-(2-(2-(isopropylamino)thiazol-4-yl)-7-methoxy-8-methylquinolin-4-yloxy)-5,16-dioxo-6-(2-oxo-2-(4-(trifluoromethyl)piperidin-1-yl)ethyl)-1,2,3,5,6,7,8,9,10,11, 13a,14,14a,15,16,16a-hexadecahydrocyclopropa [e]pyrrolo[1,2-a][1,4] diazacyclopentadecine-14a-carboxamide]",< 1 µM
11,"COc1ccc2c(O[C@@H]3C[C@H]4C(=O)N[C@]5(C(=O)NS(=O)(=O)C6CC6)C[C@H]5/C=C\CCCCC[C@H](CC(=O)N5CCCCC5)C(=O)N4C3)nccc2c1Cl [Compound 122, (2R,6R,13aS,16aS, Z)-2-(5-chloro-6-methoxylsoquinolin-1-yloxy)-N-(cyclopropylsulfonyl)-5, 16-dioxo-6-(2-oxo-2-(piperidin-1-yl)ethyl)-1,2,3,5,6,7,8,9,10,11, 13a,14,14a,15,16,16a-hexadecahydrocyclopropa [e]pyrrolo[1,2-a][1,4] diazacyclopentadecine-14a-carboxamide]",< 1 µM
12,"COc1ccc2c(O[C@@H]3C[C@H]4C(=O)N[C@]5(C(=O)NS(=O)(=O)C6CC6)C[C@H]5/C=C\CCCCC[C@H](CC(=O)N5CCCC(F)(F)C5)C(=O)N4C3)nccc2c1Cl [Compound 123, (2R,6R,13aS,16aS, Z)-2-(5-chloro-6-methoxylsoquinolin-1-yloxy)-N-(cyclopropylsulfonyl)-6-(2-(3,3-difluoropiperidin-1-yl)-2-oxoethyl)-5,16-dioxo-1,2,3,5,6,7,8,9,10,11, 13a,14,14a,15,16,16a-hexadecahydrocyclopropa [e]pyrrolo[1,2-a][1,4] diazacyclopentadecine-14a-carboxamide]",> 10 µM
13,COc1ccc2c(O[C@@H]3C[C@H]4C(=O)N[C@]5(C(=O)NS(=O)(=O)C6CC6)C[C@H]5/C=C\CCCCC[C@H](CC(=O)N5CCC(C(F)(F)F)CC5)C(=O)N4C3)nccc2c1Cl [Compound 124],< 1 µM
14,"O=C1N[C@]2(C(=O)NS(=O)(=O)C3CC3)C[C@H]2/C=C\CCCCC[C@H](CC(=O)N2CCC(C(F)(F)F)CC2)C(=O)N2C[C@H](Oc3cc(-c4ccccn4)nc4c5c(ccc34)CCC5)C[C@@H]12 [Compound 125, (2R,6R,13aS,16aS,Z)-N-(cyclopropylsulfonyl)-5,16-dioxo-6-(2-oxo-2-(4-(trifluoromethyl)piperidin-1-yl)ethyl)-2-(2-(pyridin-2-yl)-8,9-dihydro-7H-cyclopenta[h]quinolin-4-yloxy)-1,2,3,5,6,7,8,9,10,11, 13a,14,14a,15,16,16a-hexadecahydrocyclopropa [e]pyrrolo[1,2-a][1,4] diazacyclopentadecine-14a-carboxamide]",< 1 µM
15,"COc1ccc2c(O[C@@H]3C[C@H]4C(=O)N[C@]5(C(=O)NS(=O)(=O)C6CC6)C[C@H]5/C=C\CCCCC[C@H](CC(=O)N5CCC(C(F)(F)F)CC5)C(=O)N4C3)cc(-c3nc(C(C)C)cs3)nc2c1C [Compound 126, (2R,6R,14aR,16aS,Z)-N-(cyclopropylsulfonyl)-2-(2-(4-isopropylthiazol-2-yl)-7-methoxy-8-methylquinolin-4-yloxy)-5,16-dioxo-6-(2-oxo-2-(4-(trifluoromethyl)piperidin-1-yl)ethyl)-1,2,3,5,6,7,8,9,10,11, 13a,14,14a,15,16,16a-hexadecahydrocyclopropa [e]pyrrolo[1,2-a][1,4] diazacyclopentadecine-14a-carboxamide]",< 1 µM
